From patent US20050159431A1, “Substituted alkyl uracils and thereof” (Bayer Healthcare AG, priority 2002, published 2005)
Where two headings read alike, the source gives them in different places.

Legend:
human PARS enzyme = target: T1, human PARS enzyme (Homo sapiens, UniProt P09874); test: PARS inhibition test (in vitro); assay type: biochemical; details: recombinant human PARS, [14C]-NAD+, 10 min room temperature
T1 construct: made in house; host or cells: baculovirus expression system (Bac-To-Bac, Life Technologies)
T1 sequence (P09874 whole entry): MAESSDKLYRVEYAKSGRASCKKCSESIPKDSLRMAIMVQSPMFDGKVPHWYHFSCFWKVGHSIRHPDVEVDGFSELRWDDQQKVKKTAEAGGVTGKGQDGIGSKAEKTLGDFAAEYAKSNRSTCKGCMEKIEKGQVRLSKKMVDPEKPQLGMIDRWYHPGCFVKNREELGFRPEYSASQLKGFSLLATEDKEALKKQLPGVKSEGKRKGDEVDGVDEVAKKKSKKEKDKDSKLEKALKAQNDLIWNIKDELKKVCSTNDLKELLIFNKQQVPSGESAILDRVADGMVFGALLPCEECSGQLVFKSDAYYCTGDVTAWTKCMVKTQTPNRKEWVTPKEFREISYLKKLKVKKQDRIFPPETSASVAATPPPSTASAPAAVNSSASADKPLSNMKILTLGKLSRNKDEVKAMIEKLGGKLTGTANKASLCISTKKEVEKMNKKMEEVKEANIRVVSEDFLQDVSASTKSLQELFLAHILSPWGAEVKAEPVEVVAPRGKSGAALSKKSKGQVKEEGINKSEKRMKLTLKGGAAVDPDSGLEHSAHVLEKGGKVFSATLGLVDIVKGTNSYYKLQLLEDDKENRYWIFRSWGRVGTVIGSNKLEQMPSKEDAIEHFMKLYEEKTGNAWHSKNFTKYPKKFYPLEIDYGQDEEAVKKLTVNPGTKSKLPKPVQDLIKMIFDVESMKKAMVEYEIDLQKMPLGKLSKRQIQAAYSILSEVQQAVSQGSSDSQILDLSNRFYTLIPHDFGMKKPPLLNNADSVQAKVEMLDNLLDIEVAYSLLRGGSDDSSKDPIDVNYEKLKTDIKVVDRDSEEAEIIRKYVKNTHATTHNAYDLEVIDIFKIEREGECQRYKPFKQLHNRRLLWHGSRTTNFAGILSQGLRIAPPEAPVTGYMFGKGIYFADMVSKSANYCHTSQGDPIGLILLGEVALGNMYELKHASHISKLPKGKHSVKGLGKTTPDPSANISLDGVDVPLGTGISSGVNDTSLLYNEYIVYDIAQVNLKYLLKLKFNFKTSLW
Method: The activity of substances as PARS inhibitors is tested in accordance with the method of Ushiro [Ushiro et al., J. Biol. Chem., 262, 2352-2357 (1987)]. To this end, recombinantly expressed (Bac-To-Bac, Baculo virus expression system; Instruction Manual; Life Technologies) human PARS enzyme is activated in a buffer which contains radioactively labeled [^14C]-NAD^+. The poly(ADP-ribose) units that are synthesized are precipitated using trichloroacetic acid, and the proportion of labeled protein is determined by scintillation measurements. Incubation of PARS with inhibitors leads to a decrease in the proportion of labeled protein and thus to a reduced radioactivity.
Inhibition of the PARS activity can be represented as a percentage of PARS inhibition in incubation with different substances or as the concentration at which 50% of the enzyme is inhibited, i.e. as IC50 value.
The compounds to be tested are dissolved in DMSO (dimethyl sulfoxide) at a concentration of 10 mM. The assay is carried out in deep 96-well plates. Per well, 70 μl of buffer, 10 μl of DNA, 10 μl of histones, 10 μl of NAD^+/[^14C]-NAD^+ mix and 0.5-5 μl of PARS (about 10,000 cpm/test) are combined with 1 μl of the compounds (final concentration 0.001-10 μM), to give a total volume of about 110 μl. The mixture is incubated at room temperature for 10 min, and 1 ml of ice-cold TCA solution is then added, and the precipitated labeled proteins are sucked onto a filter paper (printed filter mat A; from Wallac) using a harvester (from Scatron). The filter is dried, sealed together with a scintillation sheet (Multilex A; from Wallac) and measured in a p counter for 1 min per well.
In addition to the substances described in this application, the known PARS inhibitor 1,5-dihydroxyisoquinoline (DHCH) is tested as reference substance. The results of the test are stated as IC50 values for the inhibition of PARS.

MHEC5-T cells = test: Cell protection assay (in vitro), H2O2-induced cell death; assay type: cell-based; details: MHEC5-T endothelial cells
Method: In accordance with a method described by Bowes [Bowes et al., Br. J. Pharmacol., 124, 1760-1766 (1998)], the ability of PARS inhibitors to protect cells against cell death induced by incubation with H2O2 is examined in a cell protection assay. Incubation of endothelial cells with H2O2 results in the generation of DNA strand breaks which in turn activate PARS, resulting in a drastic energy decrease in the cells and in cell death. Living cells are quantified by a fluorimetric redox indicator (Alamar blue), which is converted in the electron transport system of the mitochondria.
Specifically, 7500 MHEC5-T cells/well (DSM ACC 336; German collection of microorganisms and cell cultures) are sown in 4 replications on a 96-well plate. After 24 hours, the cells are incubated with 3 mM aqueous H2O2 solution and differing concentrations of the substances in the presence of 6% by volume of Alamar blue solution in the medium at 37° C. for 5 hours. The reference substance used is 10 μM 1,5-dihydroxyisoquinoline (DHCH) solution. After the incubation, the fluorescence is measured at an excitation wavelength of 530-560 nm and an emission wavelength of 590 nm. The percentage for the cell protection is calculated as the difference between the living cells treated only with H2O2 and the cells treated with H2O2 and PARS inhibitors. The internal standard used is 10 μM DHCH, which is defined as 100% protection. The results obtained for the other substances are compared to this value.
The EC50 values indicate the concentration at which 50% of maximum cell protection is reached, maximum protection by 10 μM DHCH being defined as 100%. DHCH has an EC50 value of 2 μM.

[1] = 3 mM H2O2, 5 hours, Alamar blue, 10 μM DHCH defined as 100% protection, read-out: Cell protection (in vitro) EC50

IC50 (human PARS enzyme) | SMILES | EC50 (MHEC5-T cells; 3 mM H2O2, maximum protection by 10 μM DHCH defined as 100%, read-out: EC50 value cell protection) | EC50 (MHEC5-T cells; [1])
300 nM | Oc1cccc2c(O)nccc12 [DHCH, 1,5-dihydroxyisoquinoline, reference compound] | 2000 nM | –
60 nM | O=c1[nH]c(=O)n(CCc2ccc(Br)cc2)c2c1CSCC2 [Example 1, 1-[2-(4-Bromophenyl)ethyl]-1,5,7,8-tetrahydro-2H-thiopyrano[4,3-d]pyrimidine-2,4(3H)-dione] | – | –
– | O=Cc1ccc(CCn2c3c(c(=O)[nH]c2=O)CSCC3)cc1 [Example 5] | – | 150 nM
50 nM | O=c1[nH]c(=O)n(CCc2ccc(CNCCO)cc2)c2c1CSCC2 [Example 6, 1-[2-(4-{[(2-Hydroxyethyl)amino]methyl}phenyl)ethyl]-1,5,7,8-tetrahydro-2H-thiopyrano-[4,3-d]pyrimidine-2,4(3H)-dione] | – | –
85 nM | Cc1cn(CCCn2c3c(c(=O)[nH]c2=O)CSCC3)cn1 [Example 8, 1-[3-(4-Methyl-1H-imidazol-1-yl)propyl]-1,5,7,8-tetrahydro-2H-thiopyrano[4,3-d]pyrimidine-2,4(3H)-dione] | – | –
20 nM | O=c1[nH]c(=O)n(CCc2ccc([N+](=O)[O-])cc2)c2c1CSCC2 [Example 40] | – | –
80 nM | Cc1[nH]ncc1CCCn1c2c(c(=O)[nH]c1=O)CSCC2 [Example 53] | – | –
75 nM | O=c1[nH]c(=O)n(Cc2cccnc2)c2c1CSCC2 [Example 56] | – | –
– | O=c1[nH]c(=O)n(CCc2ccc(CN3CCCCC3)cc2)c2c1CSCC2 [Example 61] | – | 100 nM
800 nM | CC(C)N1CCN(C(=O)c2ccc(CCn3c4c(c(=O)[nH]c3=O)CSCC4)cc2)CC1 [Example 62] | – | –
– | O=c1[nH]c(=O)n(CCCn2cnc([N+](=O)[O-])c2)c2c1CSCC2 [Example 65] | – | 90 nM
– | O=c1[nH]c(=O)n(CCc2cccnc2)c2c1CSCC2 [Example 66] | – | 650 nM
– | O=c1[nH]c(=O)n(CCCn2ccnc2)c2c1CSCC2 [Example 76] | – | 500 nM
